This note sets out measurements from patent publication US20120004289A1, “ANNEXIN A11 AND ASSOCIATED GENES AS BIOMARKERS FOR CANCER” (The Johns Hopkins University, priority 2009, published 2012).

Type in all cases: cell-based, human
Experiment [1] concerns 2008 cells. As to the kind of experiment: Cell cytotoxicity assay of cisplatin (CCK-8) in siRNA- or control-transfected 2008 cells. As to conditions: 72 hours. Here is the method: (A and B) Cell proliferation assay. 2008 (A) or HEY (B) cells were treated with RNAi (A1) or -Ctr at the concentration of 40 nM for 3 days, respectively, and then plated at 3000 viable cells per well into 96-well plates. Every 24 hours, one plate was subjected to assay by CCK-8 kit. The data in each time point are averaged values from eight replicates (P<0.05). (C) Colony formation assay. 2008 cells were treated in the same way as above for 3 days and then plated at 3000 viable cells per well into six-well plates. Six days after plating, cells were fixed with methanol and stained with 0.1% crystal violet and colonies were counted. The experiment was performed in six replicates (P<0.01). (D) Cell cytotoxicity assay. 2008 cells were treated in same way as above for 3 days and then plated at 3000 viable cells per well into 96-well plates. After incubating overnight, cells were treated with various concentration of cisplatin diluted in 100 μl of conditioned medium (the final concentrations of cisplatin were 0, 1.56, 3.13, 6.25, 12.5, 25, 50, and 100 μg/ml). After continuous incubation for 72 hours, the plates were subjected to assay by CCK-8 kit. The experiment was performed in three replicates (P<0.01). Three independent experiments were performed for each assay. […] Cells were then collected, counted, and plated at 3000 viable cells per well into 96-well plates in a final volume of 100 μl. […]

The subject of experiment [2] is 2008 cells. As to the kind of experiment: Time course of gene expression response to cisplatin, Agilent 44K whole genome oligo microarray. To be noted: 10 μM cisplatin. Here is the method:
2008 cells were cultured in T150 flasks and transfected with A1 or negative control for 2 days. Cells were then collected, counted, and placed into 100-mm dishes. After incubating overnight, transfected cells were at 50% confluence and treated with 10 μM cisplatin (Sigma-Aldrich, St. Louis, Mo.) for 0, 8, 16, and 24 hours and then harvested in two portions for both total RNA and total protein extractions at every single time point. The optimized dose and duration of cisplatin treatment were experimentally determined in a previous study. Total RNA was isolated using TRIZOL reagent (Invitrogen) followed by RNeasy mini kit with DNase on-column digestion (Qiagen, Valencia, Calif.). RNA was quantified with NanoDrop ND-1000 followed by quality assessment with the 2100 Bioanalyzer (Agilent Technologies, Santa Clara, Calif.) according to manufacturer's protocol. Total RNA was labeled using Agilent Low RNA Input Fluorescent Linear Amplification Kit (Agilent) following the manufacturer's instruction with minor modifications. Briefly, 0.4 μg of RNA was reverse transcribed into cDNA by MMLV-RT using an oligo dT primer (System Biosciences, Mountain View, Calif.) that incorporated a T7 promoter sequence. The cDNA was then used as a template for in vitro transcription in the presence of T7 RNA polymerase and cyanine-3-labeled CTPs (Perkin Elmer Life Sciences, Boston, Mass.). RNA spike-in controls (Agilent) were added to RNA samples before amplification and labeling. The labeled cRNA was purified using the RNeasy mini kit (Qiagen). A total of 0.825 μg of each Cy3-labeled sample was used for hybridization on Agilent 4×44K whole human genome microarray at 65° C. for 17 hours in a hybridization oven with rotation. After hybridization, slides were washed and dried using stabilization and drying solution according to the Agilent microarray processing protocol. Slides were scanned using the Agilent Microarray Scanner controlled by Agilent Scan Control 7.0 software. Microarray data were extracted with Agilent Feature Extraction 9.5.3.1 software and imported into GeneSpring GX 10 (Agilent). […]

Experiment [3] deals with 2008 cells. As to the kind of experiment: Real-time PCR validation of gene expression response to cisplatin. To be noted: both groups of cells. Here is the method: 2008 cells were cultured in T150 flasks and transfected with A1 or negative control for 2 days. Cells were then collected, counted, and placed into 100-mm dishes. After incubating overnight, transfected cells were at 50% confluence and treated with 10 μM cisplatin (Sigma-Aldrich, St. Louis, Mo.) for 0, 8, 16, and 24 hours and then harvested in two portions for both total RNA and total protein extractions at every single time point. The optimized dose and duration of cisplatin treatment were experimentally determined in a previous study. Total RNA was isolated using TRIZOL reagent (Invitrogen) followed by RNeasy mini kit with DNase on-column digestion (Qiagen, Valencia, Calif.). RNA was quantified with NanoDrop ND-1000 followed by quality assessment with the 2100 Bioanalyzer (Agilent Technologies, Santa Clara, Calif.) according to manufacturer's protocol. […]. One microgram of total RNA was used to generate cDNA using the iScript cDNA Synthesis Kit (Bio-Rad, Hercules, Calif.). […] An experiment consisted of triplicate amplification reactions for each gene product being analyzed. […] The cycle threshold number (CT) was determined for each PCR using iQ5 Real-time PCR Detection System (Bio-Rad). […] Results are expressed as relative abundance of a specific mRNA between control and experimental sample (fold change, mean±SD).

With `N.N.[Cl][Pt][Cl]` [cisplatin], the “fold increase of IC50 in RNAi cells compared with control cells” value in the experiment on 2008 cells [1] worked out at 2.6 fold. In addition, the figures for the “number of genes upregulated or downregulated more than two-fold vs 0 hour in both groups of cells” value in the experiment on 2008 cells [2] (8 hours), in the experiment with 2008 cells [2] (16 hours) and with 2008 cells [2] (24 hours) were 6 genes, 19 genes and 47 genes, respectively. The “PCSK9 gene expression (real-time PCR)” value in the experiment on 2008 cells [3] (10 μM cisplatin, 8, 16 and 24 hours) is “decreased at 8 hours but increased at 16 and 24 hours”. Further, the “DHRS2 gene expression (real-time PCR)” value in the experiment with 2008 cells [3] (10 μM cisplatin, 16 and 24 hours) is recorded as “down-regulation”.
